From ChEMBL document CHEMBL4152274, “Design, synthesis and X-ray crystallography of selenides bearing benzenesulfonamide moiety with neuropathic pain modulating effects” (Eur J Med Chem, 2018) come the findings set out here.

Activity calls are given as the source filed them. The calls are words filed in the database; no cut-off is given here.

Test [1] concerns Mus musculus. Put plainly: Pain relieving effect in mouse oxaliplatin-induced neuropathic pain model at 100 mg/kg, po measured over 15 to 45 mins by cold plate test. Format: functional, organism-based.
Test [2] addresses Carbonic anhydrase 9 (Homo sapiens, UniProt Q16790). As to the kind of experiment: Inhibition of human carbonic anhydrase 9 incubated for 15 mins prior to testing by stopped-flow CO2 hydration assay.
Test [3] concerns Mus musculus. As to the kind of experiment: Pain relieving effect in mouse oxaliplatin-induced neuropathic pain model at 30 mg/kg, po measured at 30 mins by cold plate test. Format: functional, organism-based.

Take `COCC[Se]c1ccc(S(N)(=O)=O)cc1`: in test [1], the outcome was Active. In general, Ki refers to a measure of affinity in units of concentration, obtained from inhibition or displacement. In turn, `N#C[Se]Cc1ccc(S(N)(=O)=O)cc1` displayed a Ki in test [2] of 4 nM. Molecule `COc1ccc(C(=O)Nc2ccc([Se]Cc3ccc(S(N)(=O)=O)cc3)cc2)c(OC)c1` gave a Ki in test [2] of 845 nM.

In the case of `Cc1cc(C)cc(NC(=O)Nc2ccc([Se]Cc3ccc(S(N)(=O)=O)cc3)cc2)c1`, affinity in test [2] was put at a Ki of 1140 nM.

As to `NS(=O)(=O)c1ccc(C[Se]c2ccc(NC(=O)Nc3ccc(F)cc3)cc2)cc1`, the Ki in test [2] was 1070 nM.

On to `NS(=O)(=O)c1ccc(C[Se]c2ccc(NC(=O)/C=C/c3ccccc3)cc2)cc1`, for which affinity in test [2] was put at a Ki of 1010 nM. In turn, `CC(=O)Oc1ccccc1C(=O)Nc1ccc([Se]Cc2ccc(S(N)(=O)=O)cc2)cc1` came in with a Ki in test [2] of 710 nM. For `NS(=O)(=O)c1ccc(C[Se]c2ccccc2)cc1`, in test [3], the result was Active. Turning to `NS(=O)(=O)c1ccc(C[Se]c2ccc(NC(=S)Nc3ccc(-c4c5ccc(=O)cc-5oc5cc(O)ccc45)c(C(=O)O)c3)cc2)cc1`, the affinity in test [2] corresponds to a Ki of 697 nM. As for `NS(=O)(=O)c1ccc([Se]CCc2ccccc2)cc1`, in test [1], the result was Active. Take `CN(C)c1ccc([Se]Cc2ccc(S(N)(=O)=O)cc2)cc1`: affinity in test [2] was put at a Ki of 450 nM.

For `NS(=O)(=O)c1ccc([Se]CC2CC2)cc1`, in test [2], the Ki worked out at 46.4 nM.

In the case of `NS(=O)(=O)c1ccc(C[Se]c2ccc3ccccc3c2)cc1`, the affinity in test [2] corresponds to a Ki of 337 nM. `NS(=O)(=O)c1ccc([Se]Cc2ccccc2)cc1` displayed a Ki in test [2] of 549 nM. On the same count and under the same terms, then `Nc1ccc([Se]Cc2ccc(S(N)(=O)=O)cc2)cc1`, with 286 nM.
